Results on one cell line are retold here after the supplement of paper PMC10307832.

What all share (experiment): relative viability (nuclei count vs DMSO), 5 days (fraction); higher = more cells survive
Compound in the assay “GSK126 + Luminespib”: CC[C@H](C)N1C=C(C2=C(C=C(C=C21)C3=CN=C(C=C3)N4CCNCC4)C(=O)NCC5=C(C=C(NC5=O)C)C)C [GSK126] + CCNC(=O)c1noc(-c2cc(C(C)C)c(O)cc2O)c1-c1ccc(CN2CCOCC2)cc1 [Luminespib] (partner 0.01 µM)
In a few lines: (§1)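 Nuclei were stained with Hoechst during a one-step fixation (final 0.05% Triton X-100, 1% formaldehyde, 1 ug/ml Hoechst) carried out 5 days after dosing, then counted on 4× images. The cells, lung cancer lines in 1536-well plates, had been dosed by pin tool the day after seeding with one drug alone or a fixed anchor-drug dose plus five library-drug doses (not always all listed) in √10 steps. Relative viability is the nuclei count in treated wells divided by that in vehicle wells, and each value is the median of duplicate plates.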

Compound in the assay “GSK126 + Pemetrexed”: CC[C@H](C)N1C=C(C2=C(C=C(C=C21)C3=CN=C(C=C3)N4CCNCC4)C(=O)NCC5=C(C=C(NC5=O)C)C)C [GSK126] + Nc1nc2[nH]cc(CCc3ccc(C(=O)N[C@@H](CCC(=O)O)C(=O)O)cc3)c2c(=O)[nH]1 [Pemetrexed] (partner 0.2 µM)
In a few lines:
as §1

Compound in the assay “MLN4924 + Pemetrexed”: NS(=O)(=O)OC[C@@H]1C[C@@H](n2ccc3c(N[C@H]4CCc5ccccc54)ncnc32)C[C@@H]1O [MLN4924] + Nc1nc2[nH]cc(CCc3ccc(C(=O)N[C@@H](CCC(=O)O)C(=O)O)cc3)c2c(=O)[nH]1 [Pemetrexed] (partner 0.2 µM)
In a few lines:
as §1

Compound in the assay “GSK126 + Palbociclib”: CC[C@H](C)N1C=C(C2=C(C=C(C=C21)C3=CN=C(C=C3)N4CCNCC4)C(=O)NCC5=C(C=C(NC5=O)C)C)C [GSK126] + CC(=O)c1c(C)c2cnc(Nc3ccc(N4CCNCC4)cn3)nc2n(C2CCCC2)c1=O [Palbociclib] (partner 0.5 µM)
In a few lines:
as §1

Consider UMC-11, for which the relative viability with GSK126 + Luminespib (first compound 0.08 µM) is 1.19; with GSK126 + Luminespib (first compound 0.253 µM), 1.07; with GSK126 + Luminespib (first compound 0.8 µM), 1.04; with GSK126 + Luminespib (first compound 2.53 µM) it was 1.07; with GSK126 + Luminespib (first compound 8 µM), 1.31; in the assay with GSK126 + Pemetrexed (first compound 0.08 µM), 0.841. Also, the relative viability was determined as 0.749 in the assay with GSK126 + Pemetrexed (first compound 0.253 µM); 0.756 with GSK126 + Pemetrexed (first compound 0.8 µM); 0.744 with GSK126 + Pemetrexed (first compound 2.53 µM); 0.831 in the assay with GSK126 + Pemetrexed (first compound 8 µM); 0.53 with MLN4924 + Pemetrexed (first compound 0.04 µM); 0.327 in the assay with MLN4924 + Pemetrexed (first compound 0.1265 µM). Further, the relative viability was determined as 0.289 in the assay with MLN4924 + Pemetrexed (first compound 0.4 µM); 0.175 with MLN4924 + Pemetrexed (first compound 1.265 µM); 0.159 with MLN4924 + Pemetrexed (first compound 4 µM); 0.353 with GSK126 + Palbociclib (first compound 0.08 µM); 0.32 with GSK126 + Palbociclib (first compound 0.253 µM); 0.328 with GSK126 + Palbociclib (first compound 0.8 µM). Also, the relative viability with GSK126 + Palbociclib (first compound 2.53 µM) is 0.405; with GSK126 + Palbociclib (first compound 8 µM) it was 0.344.
